Measurements taken from the NIST ThermoML archive (doi:10.1021/acs.jced.9b00442).
± gives the expanded uncertainty stated by the source.

Settings: 100 kPa, Liquid; for electrical conductivity: Frequency=0.0006 MHz, Alternating current cell with electrodes; for viscosity: Concentric cylinders viscometry; for mass density: Vibrating tube method

CC[N+](C)(CCO)CCO.O=S(=O)([N-]S(=O)(=O)C(F)(F)F)C(F)(F)F
Settings | electrical conductivity [S/m] | mass density [kg/m3] | viscosity [mPa·s]
283.15 K | 0.027 ± 0.001 | – | –
288.15 K | 0.04 ± 0.001 | 1524.5 ± 1.2 | 536.2 ± 27
289.15 K | – | 1523.6 ± 1.2 | –
290.15 K | – | 1522.7 ± 1.2 | –
291.15 K | – | 1521.7 ± 1.2 | –
292.15 K | – | 1520.8 ± 1.2 | –
293.15 K | 0.056 ± 0.001 | 1519.9 ± 1.2 | –
294.15 K | – | 1519 ± 1.2 | –
295.15 K | – | 1518 ± 1.2 | –
296.15 K | – | 1517.1 ± 1.2 | –
297.15 K | – | 1516.2 ± 1.2 | –
298.15 K | 0.076 ± 0.002 | 1515.3 ± 1.2 | 268.3 ± 12
299.16 K | – | 1514.4 ± 1.2 | –
300.16 K | – | 1513.4 ± 1.2 | –
301.15 K | – | 1512.5 ± 1.2 | –
302.15 K | – | 1511.6 ± 1.2 | –
303.15 K | 0.101 ± 0.002 | 1510.7 ± 1.2 | 197.7 ± 8.7
304.15 K | – | 1509.8 ± 1.2 | –
305.15 K | – | 1508.9 ± 1.2 | –
306.15 K | – | 1508 ± 1.2 | –
307.15 K | – | 1507.1 ± 1.2 | –
308.15 K | 0.13 ± 0.003 | 1506.2 ± 1.2 | 149 ± 6.3
309.15 K | – | 1505.3 ± 1.2 | –
310.15 K | – | 1504.4 ± 1.2 | –
311.15 K | – | 1503.5 ± 1.2 | –
312.15 K | – | 1502.6 ± 1.2 | –
313.15 K | 0.165 ± 0.003 | 1501.7 ± 1.2 | 112.6 ± 4.7
314.15 K | – | 1500.8 ± 1.2 | –
315.15 K | – | 1499.9 ± 1.2 | –
316.15 K | – | 1499 ± 1.2 | –
317.15 K | – | 1498.1 ± 1.2 | –
318.15 K | 0.206 ± 0.004 | 1497.2 ± 1.2 | 89.9 ± 3.7
319.15 K | – | 1496.3 ± 1.2 | –
320.15 K | – | 1495.4 ± 1.2 | –
321.15 K | – | 1494.6 ± 1.2 | –
322.15 K | – | 1493.7 ± 1.2 | –
323.15 K | 0.253 ± 0.005 | 1492.8 ± 1.2 | 71.7 ± 2.9
324.15 K | – | 1491.9 ± 1.2 | –
325.15 K | – | 1491 ± 1.2 | –
326.15 K | – | 1490.2 ± 1.2 | –
327.15 K | – | 1489.3 ± 1.2 | –
328.15 K | – | 1488.4 ± 1.2 | 58.1 ± 2.3
329.15 K | – | 1487.5 ± 1.2 | –
330.15 K | – | 1486.7 ± 1.2 | –
331.15 K | – | 1485.8 ± 1.2 | –
332.15 K | – | 1484.9 ± 1.2 | –
333.15 K | – | 1484.1 ± 1.2 | 47.3 ± 1.9
334.15 K | – | 1483.2 ± 1.2 | –
335.16 K | – | 1482.3 ± 1.2 | –
336.15 K | – | 1481.5 ± 1.2 | –
337.15 K | – | 1480.6 ± 1.2 | –
338.15 K | – | 1479.7 ± 1.2 | 39.7 ± 1.6
339.15 K | – | 1478.9 ± 1.2 | –
340.15 K | – | 1478 ± 1.2 | –
341.15 K | – | 1477.1 ± 1.2 | –
342.15 K | – | 1476.3 ± 1.2 | –
343.15 K | – | 1475.4 ± 1.2 | 33.4 ± 1.4
344.15 K | – | 1474.6 ± 1.2 | –
345.15 K | – | 1473.7 ± 1.2 | –
346.15 K | – | 1472.8 ± 1.2 | –
347.15 K | – | 1472 ± 1.2 | –
348.15 K | – | 1471.1 ± 1.2 | 28.4 ± 1.1
349.15 K | – | 1470.3 ± 1.2 | –
350.15 K | – | 1469.4 ± 1.2 | –
351.15 K | – | 1468.6 ± 1.2 | –
352.15 K | – | 1467.7 ± 1.2 | –
353.15 K | – | 1466.8 ± 1.2 | 24.3 ± 1
354.15 K | – | 1466 ± 1.2 | –
355.15 K | – | 1465.1 ± 1.2 | –
356.15 K | – | 1464.3 ± 1.2 | –
357.15 K | – | 1463.5 ± 1.2 | –
358.15 K | – | 1462.6 ± 1.2 | 21.1 ± 0.9
359.15 K | – | 1461.8 ± 1.2 | –
360.15 K | – | 1460.9 ± 1.2 | –
361.15 K | – | 1460.1 ± 1.2 | –
362.16 K | – | 1459.2 ± 1.2 | –
363.15 K | – | 1458.4 ± 1.2 | 18.4 ± 0.7
